Experimental data reported in patent publication US6008227A, “Process for blocking 5-HT and dopamine uptake with biologically active tropane derivatives” (Wake Forest University, priority 1993, dated 1999).
“Also recorded” adds a separate entry of the source. Where two headings read alike, the source gives them in different places.

Tests used:
[1] = biological target: T1, dopamine transporter (Rattus norvegicus, UniProt P23977); experiment: Displacement of [^125 I]RTI-55 binding to dopamine transporters in rat striatal membranes; conditions: for binding ratio: 5-HT K1 / DA K1, higher numbers demonstrate relatively greater dopamine transporter potency; for Ki: [^125 I]RTI-55 10-20 pM, rat striatal membranes; for displacement of [^125 I]RTI-55 binding, in words: FIG. 1
T1 construct: was used to label dopamine transporters in rat striatal membranes; from tissue; host or cells: rat striatal membranes

[2] = biological target: T1, dopamine transporter; experiment: Inhibition of [3H]dopamine uptake into dissociated striatal cells from fetal and adult rat brain; assay type: cell-based; conditions: for uptake ratio: 5-HT uptake IC50 / DA uptake IC50; for inhibition of [3H]dopamine uptake into striatal cells, in words: FIG. 3; for dopamine: 5-HT ratio: regardless of the assay used (binding or uptake)
[3] = biological target: T2, 5-HT transporter (Rattus norvegicus, UniProt P31652); experiment: Displacement of [^3 H]paroxetine binding to 5-HT transporter sites in rat frontal cortex; design: from tissue; host or cells: rat frontal cortex; conditions: for displacement of [^3 H]paroxetine binding, in words: FIG. 2 / text; for selectivity between dopamine and 5-HT transporters, in words: binding assays; for times more potent than cocaine at 5-HT transporter sites: vs cocaine, [^3 H]paroxetine binding; for selectivity towards the 5-HT transporter in terms of binding and inhibition, in words: binding and uptake inhibition
[4] = biological target: T2, 5-HT transporter; experiment: Inhibition of [^3 H]5-HT uptake in dissociated frontal cortex cells from fetal and adult rat brain; assay type: cell-based; design: from tissue; host or cells: rat frontal cortex; conditions: for IC50: frontal cortex cells, fetal and adult rat brain; for blocking [^3 H]5-HT uptake in cortical cells, in words: FIG. 4
[5] = vs cocaine, [^125 I]RTI-55 binding
[6] = read-out: [^3 H] paroxetine K1, [^3 H]paroxetine, rat frontal cortex

T1 sequence (P23977 whole entry): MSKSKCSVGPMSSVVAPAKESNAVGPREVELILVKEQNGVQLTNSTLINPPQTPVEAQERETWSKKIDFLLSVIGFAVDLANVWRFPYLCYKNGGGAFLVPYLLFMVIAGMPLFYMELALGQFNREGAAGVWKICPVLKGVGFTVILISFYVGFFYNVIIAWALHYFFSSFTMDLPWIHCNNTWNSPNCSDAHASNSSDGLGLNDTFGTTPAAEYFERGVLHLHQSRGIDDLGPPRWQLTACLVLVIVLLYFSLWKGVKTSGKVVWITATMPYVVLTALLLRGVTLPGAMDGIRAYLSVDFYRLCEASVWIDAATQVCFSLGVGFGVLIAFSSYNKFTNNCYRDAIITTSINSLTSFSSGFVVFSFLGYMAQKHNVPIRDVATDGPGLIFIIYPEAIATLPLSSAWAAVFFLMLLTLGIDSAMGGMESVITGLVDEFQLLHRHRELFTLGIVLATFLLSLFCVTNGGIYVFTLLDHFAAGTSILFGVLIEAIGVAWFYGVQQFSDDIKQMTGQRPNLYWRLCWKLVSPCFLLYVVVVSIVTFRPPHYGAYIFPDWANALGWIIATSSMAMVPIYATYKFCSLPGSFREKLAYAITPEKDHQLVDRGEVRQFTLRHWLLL
T2 sequence (P31652 whole entry): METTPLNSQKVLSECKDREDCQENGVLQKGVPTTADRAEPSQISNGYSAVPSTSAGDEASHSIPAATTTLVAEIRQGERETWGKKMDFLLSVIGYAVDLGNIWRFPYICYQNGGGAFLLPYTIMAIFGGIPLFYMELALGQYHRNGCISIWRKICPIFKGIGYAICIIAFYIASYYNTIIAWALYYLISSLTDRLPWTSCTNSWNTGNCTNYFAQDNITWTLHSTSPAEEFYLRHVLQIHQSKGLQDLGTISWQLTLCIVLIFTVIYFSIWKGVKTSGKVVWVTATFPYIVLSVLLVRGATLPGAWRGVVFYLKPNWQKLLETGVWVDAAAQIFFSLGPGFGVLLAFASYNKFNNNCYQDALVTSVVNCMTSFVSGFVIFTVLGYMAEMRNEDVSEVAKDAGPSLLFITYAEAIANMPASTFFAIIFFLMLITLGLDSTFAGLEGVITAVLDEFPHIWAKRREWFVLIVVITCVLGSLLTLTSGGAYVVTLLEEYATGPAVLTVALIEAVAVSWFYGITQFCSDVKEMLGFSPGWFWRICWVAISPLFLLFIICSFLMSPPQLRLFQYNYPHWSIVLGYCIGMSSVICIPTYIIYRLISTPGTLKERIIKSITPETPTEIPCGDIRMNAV

## CCC(=O)[C@H]1[C@@H](c2ccc(C)cc2)C[C@@H]2CC[C@H]1N2C (relative stereo) [WF-11]
[1]
  binding ratio: 15.9
  Ki: 8.2 ± 1.6 nM
[1]; [5]
  times more potent than cocaine in binding to dopamine transporters: 20 times
[2]
  IC50: 2.21 ± 1.7 nM
  uptake ratio: 140
[2]; uptake assays
  times more potent in inhibiting dopamine uptake than 5-HT uptake: 140 times
[3]
  displacement of [^3 H]paroxetine binding, in words: approximately equipotent with cocaine in displacing [^3 H]paroxetine binding
  selectivity between dopamine and 5-HT transporters, in words: relatively more selective for dopamine transporters
  times more potent than cocaine at 5-HT transporter sites: twice
[4]
  IC50: 310 ± 104 nM

## CCC(=O)[C@@H]1[C@@H](CC)C[C@@H]2CC[C@H]1N2C (relative stereo) [WF-14]
[1]
  Ki: > 50000 nM
[3]
  Ki: > 10000 nM

## CCC(=O)[C@H]1[C@@H](c2ccc3cc(OC)ccc3c2)C[C@@H]2CC[C@H]1N2C (relative stereo) [WF-33]
[1]
  displacement of [^125 I]RTI-55 binding, in words: the most potent of these compounds; also recorded: equipotent in displacing [^125 I]RTI-55 binding
[3]
  displacement of [^3 H]paroxetine binding, in words: the most potent compounds in displacing [^3 H]paroxetine binding
  times more potent than cocaine at 5-HT transporter sites: 140 times
[3]; vs WF-23
  times less potent than WF-23 in displacing [^3 H]paroxetine binding: 4 times

## CCC(=O)[C@H]1[C@@H](c2ccc(C(C)C)cc2)C[C@@H]2CC[C@H]1N2C (relative stereo) [WF-31]
[1]
  binding ratio: 0.089
  displacement of [^125 I]RTI-55 binding, in words: less potent in displacing [^125 I]RTI-55 than cocaine
[1]; read-out:
  Ki: 615 ± 98 nM
[1]; [5]
  times less potent than cocaine at dopamine transporters: 2.5 times
[2]
  inhibition of [3H]dopamine uptake into striatal cells, in words: considerably less potent in blocking [3H]dopamine uptake
[2]; read-out: DA uptake IC50, striatal cells, fetal and adult rat brain
  IC50: 5840 ± 2600 nM
[3]
  displacement of [^3 H]paroxetine binding, in words: significantly more potent in displacing [^3 H]paroxetine than cocaine
  selectivity towards the 5-HT transporter in terms of binding and inhibition, in words: considerable selectivity towards the 5-HT transporter
  times more potent than cocaine at 5-HT transporter sites: 8 times
[3]; [6]
  Ki: 54.5 ± 8.9 nM
[4]
  blocking [^3 H]5-HT uptake in cortical cells, in words: significantly more potent than cocaine in blocking [^3 H]5-HT uptake
  IC50: 46.9 nM
[4]; uptake assays
  times more potent in inhibiting 5-HT uptake than dopamine uptake: 120 times

## CCC(=O)[C@H]1[C@@H](CC)C[C@@H]2CC[C@H]1N2C (relative stereo) [WF-18]
[1]
  Ki: > 50000 nM

## CC(=O)[C@@H]1[C@@H](c2ccc(C)cc2)C[C@@H]2CC[C@H]1N2C (relative stereo) [WF-3]
[1]
  Ki: 775 ± 57 nM
[3]
  Ki: > 10000 nM

## CCC(=O)[C@@H]1[C@@H](c2ccc3cc(OC)ccc3c2)C[C@@H]2CC[C@H]1N2C (relative stereo) [WF-34]
[1]
  binding ratio: 3.76
  Ki: 54.7 ± 15 nM
[3]
  Ki: 206 ± 81 nM

## CCC(=O)[C@H]1[C@@H](c2ccccc2C)C[C@@H]2CC[C@H]1N2C (relative stereo) [WF-22]
[1]
  binding ratio: 1.30
[1]; read-out:
  Ki: 814 ± 220 nM
[3]; [6]
  Ki: 1060 ± 395 nM

## CCc1ccc([C@H]2C[C@@H]3CC[C@H]([C@H]2C(C)=O)N3C)cc1 (relative stereo) [WF-9]
[1]
  binding ratio: 0.51
  Ki: 152 ± 24 nM
[2]
  IC50: 1160 ± 266 nM
  uptake ratio: 0.0082
[3]
  selectivity towards the 5-HT transporter in terms of binding and inhibition, in words: considerable selectivity towards the 5-HT transporter
[4]
  IC50: 9.5 ± 5.4 nM

## CC(=O)[C@@H]1[C@@H](c2cccc3ccccc23)C[C@@H]2CC[C@H]1N2C (relative stereo) [WF-15]
[1]
  Ki: 97 ± 21 nM

## CC(=O)[C@@H]1[C@@H](c2ccc(F)cc2)C[C@@H]2CC[C@H]1N2C (relative stereo) [WF-1]
[1]
  Ki: 929 ± 160 nM
[3]
  Ki: > 10000 nM

## CCC(=O)C1C(c2ccc3ccccc3c2)CC2CCC1N2C (single isomer, unassigned) [WF-23(2)]
[1]
  IC50: ~0.03 nM
  binding ratio: 3.96
  Ki: 0.032 ± 0.007 nM
[2]
  dopamine: 5-HT ratio: 3-4
[3]
  Ki: 0.127 ± 0.05 nM
  displacement of [^3 H]paroxetine binding, in words: also potent vs. [^3 H]paroxetine binding
  selectivity between dopamine and 5-HT transporters, in words: the same as the racemic mixture of WF-23

## CCC(=O)[C@H]1[C@@H](C2CCCCC2)C[C@@H]2CC[C@H]1N2C (relative stereo) [WF-19]
[3]
  Ki: > 10000 nM

## CCC(=O)[C@H]1[C@@H](c2ccc(-c3ccccc3)cc2)C[C@@H]2CC[C@H]1N2C (relative stereo) [WF-35]
[1]
  binding ratio: 1.88

## CCC(=O)[C@@H]1[C@@H](c2ccccc2C)C[C@@H]2CC[C@H]1N2C (relative stereo) [WF-21]
[3]; [6]
  Ki: > 10000 nM

## CC(=O)[C@H]1[C@@H](c2ccc3ccccc3c2)C[C@@H]2CC[C@H]1N2C (relative stereo) [WF-32]
[1]
  binding ratio: 4.27
  Ki: 0.248 ± 0.15 nM

## CCC(=O)[C@H]1[C@@H](c2ccc(C(C)(C)C)cc2)C[C@@H]2CC[C@H]1N2C (relative stereo) [WF-26]
[1]
  binding ratio: 0.84

## CCC(=O)[C@H]1[C@@H](c2ccc(C)c3ccccc23)C[C@@H]2CC[C@H]1N2C (relative stereo) [WF-27]
[1]
  binding ratio: 0.358
  Ki: 25.1 ± 0.5 nM
[2]
  IC50: 260 ± 98 nM
[3]
  selectivity towards the 5-HT transporter in terms of binding and inhibition, in words: considerable selectivity towards the 5-HT transporter
[4]
  IC50: 14.6 nM

## CCC(=O)[C@H]1[C@@H](c2cccc3ccccc23)C[C@@H]2CC[C@H]1N2C (relative stereo) [WF-30]
[1]
  binding ratio: 3.91
  Ki: 5.34 ± 1.27 nM
[2]
  IC50: 3.66 ± 1.91 nM
  uptake ratio: 1.46
[4]
  IC50: 5.43 nM

## CC(=O)[C@H]1[C@@H](c2cccc3ccccc23)C[C@@H]2CC[C@H]1N2C (relative stereo) [WF-8]
[2]
  IC50: 20.7 ± 7.7 nM
[4]
  IC50: 4.55 nM

## CCC(=O)C1C(c2ccc3ccccc3c2)CC2CCC1N2C (single isomer, unassigned) [WF-23(1)]
[1]
  binding ratio: 4.2
  Ki: 113 ± 26 nM
[3]
  selectivity between dopamine and 5-HT transporters, in words: the same as the racemic mixture of WF-23

## CC(=O)[C@H]1[C@@H](c2ccc(C)cc2)C[C@@H]2CC[C@H]1N2C (relative stereo) [WF-4]
[1]
  binding ratio: 12.4
  Ki: 9.8 ± 0.5 nM
[2]
  IC50: 13.8 ± 2.6 nM
  uptake ratio: 24
[4]
  IC50: 330 ± 75 nM

## CCC(=O)[C@@H]1[C@@H](c2ccc3ccccc3c2)C[C@@H]2CC[C@H]1N2C (relative stereo) [WF-24]
[1]
  binding ratio: 6.53
  Ki: 2.51 ± 0.82 nM
[2]
  IC50: 5.9 ± 2.4 nM

## COC(=O)[C@H]1[C@@H](c2ccccc2)C[C@@H]2CC[C@H]1N2C (relative stereo) [WF-10]
[1]
  Ki: 98.8 ± 12.2 nM

## COC(=O)[C@@H]1[C@@H](c2ccccc2)C[C@@H]2CC[C@H]1N2C (relative stereo) [WF-6]
[1]
  Ki: 2060 ± 545 nM

## CC(=O)[C@H]1[C@@H](c2ccc(F)cc2)C[C@@H]2CC[C@H]1N2C (relative stereo) [WF-7]
[1]
  binding ratio: 12.1

## CC(=O)[C@@H]1[C@@H](c2ccccc2)C[C@@H]2CC[C@H]1N2C (relative stereo) [WF-2]
[1]
  Ki: 7270 ± 1210 nM
[3]
  Ki: > 10000 nM

## CCC(=O)[C@@H]1[C@@H](c2ccc(C)cc2)C[C@@H]2CC[C@H]1N2C (relative stereo) [WF-13]
[1]
  Ki: 764 ± 84 nM
[3]
  Ki: > 10000 nM

## CCc1ccc([C@H]2C[C@@H]3CC[C@H]([C@@H]2C(C)=O)N3C)cc1 (relative stereo) [WF-16]
[1]
  Ki: 2290 ± 360 nM
[3]
  Ki: > 10000 nM

## CCC(=O)[C@H]1[C@@H](c2ccc3ccccc3c2)C[C@@H]2CC[C@H]1N2C (relative stereo) [WF-23]
[1]
  binding ratio: 3.1
  Ki: 0.2 ± 0.04 nM
[1]; vs cocaine, dopamine and 5-HT transporter binding
  times more potent than cocaine at both transporters: 500-800 times
[2]
  IC50: 0.027 ± 0.016 nM
  uptake ratio: 10.0
  inhibition of [3H]dopamine uptake into striatal cells, in words: the most potent analog in inhibiting dopamine uptake
  dopamine: 5-HT ratio: 3-4
[3]
  Ki: 0.63 ± 0.2 nM
  displacement of [^3 H]paroxetine binding, in words: the most potent compounds in displacing [^3 H]paroxetine binding
  selectivity between dopamine and 5-HT transporters, in words: like cocaine, with little selectivity between the two transporters
  times more potent than cocaine at 5-HT transporter sites: 480 times
[4]
  blocking [^3 H]5-HT uptake in cortical cells, in words: significantly more potent than cocaine in blocking [^3 H]5-HT uptake
  IC50: 0.27 nM

## Cc1ccc([C@H]2C[C@@H]3CC[C@H]([C@@H]2C(=O)C(C)C)N3C)cc1 (relative stereo) [WF-17]
[1]
  Ki: 2130 ± 266 nM
[3]
  Ki: > 10000 nM
